Results on three compounds are retold here after patent publication US12208118B2, “Pharmaceutical compositions for delivery of peptide” (ANYA BIOPHARM INC., priority 2017, dated 2025).

Data set [1] can be described thus: Quantification of liraglutide level in dog plasma using ELISA kit. In kind it is in vivo. The conditions noted are these: following subcutaneous and oral administration, dogs. How it is done: Quantification of Liraglutide Level in Dog Plasma Using ELISA Kit
Test formulation I: Liraglutide—Appearance: Solution for injection in a prefilled pen; Concentration: 6 mg/ml; Date of manufacture: February 2017; Date of expiry: July 2019; Storage condition: 2-8° C.; Dose: 0.6 mg/dog; Route: SC.
Test formulation II (FA): MIRA 5 (Table 15E)+PA 2 (Table 16F)—Dose: 12 mg (one capsule)/dog; Route: Oral.
Test formulation III (G): MIRA 5 (Table 15E)+PA 3+4 (Table 16G)—Dose: 12 mg (one capsule)/dog; Route: Oral
The clinical signs observed are normal. Body weights of the dogs used in the study were recorded prior to dosing. During the period of dose administration, the dogs (Canis lupus familiaris. Breed: Beagle) were fasted (water allowed) overnight for approx. 12 hours prior to and 4 hours post dose administration. During dosing, the blood collection time points was at 0, 20, 30, 60, 120, 180, 240, 480 minutes post dose. […] Glucose was measured immediately after blood collection using Glucometer. […]
Kit Protocol: Used manufacturer recommended protocol (Cat.No.KBI5020) Ver2.0—(1) Determine wells for diluted standard, blank and sample. […] Add 50 μL each of dilutions of standard (read Reagent Preparation), blank and samples into the appropriate wells, respectively. […] Then, run the microplate reader and conduct measurement at 450 nm immediately.

A short description of data set [2]: Quantification of octreotide in rat plasma using ELISA kit. Format: in vivo, S.D. rat. The conditions noted are these: following subcutaneous and distal small intestine (ileum) administration, rats. On the procedure:
Quantification of Octreotide in Rat Plasma Using ELISA Kit
Test formulation I: Octreotide—Apprearance: Solution for injection; Concentration: 0.1 mg/ml; Storage condition: 2-8° C.; Dose: 10 μg/kg; Route: SC.
Test formulation II: MIRA 3 (Table 15C)+PA 1 (Table 16C) to be dosed into distal small intestine (ileum) to anesthetized S.D. rat; Dose: 144 μg/animal; Route: distal small intestine (ileum). During the experiment, the animals were non-fasted.
The clinical signs observed are normal. During dosing, the blood collection time points were at 0, 7, 15, 30, 45, 60 and 90 min post dose. ˜100 μl of blood was collected in a pre-filled Na-EDTA eppendorf, from retro-orbital sinus puncture. Blood was centrifuged at 5000 rpm, 5 min, 4° c. to obtain plasma.
Source: PeninsulaLaboratories International, Inc, Cat. No. S-1341.0001
Kit Protocol: Used manufacturer recommended protocol (Cat. No. S-1341.0001)—Into each well of the immunoplate add 25 μl antiserum (in EIA buffer). Add 25 μl EIA buffer to blank wells; Incubate at room temperature for 1 hour; Add 50 μl standard or sample (in diluent). […] Add 50 μl diluent to blank wells; Incubate at room temperature for 2 hours. […] You may read the developing blue color at 650 nm and use the data for your calculations. […] Read absorbance at 450 nm within ten minutes.
For orientation: ELISA stands for enzyme-linked immunosorbent assay.

Data set [3] in a line: Quantification of teriparatide in rat plasma using ELISA kit. The conditions noted are these: following subcutaneous and distal small intestine (ileum) administration, rats. In kind it is in vivo, S.D. rats. How it is done: Quantification of Teriparatide in Rat Plasma Using ELISA Kit
Test formulation I: Teriparatide; Apprearance: Solution for injection; Concentration: 600 μg/2.4 ml; Storage condition: 2-8° C.; Dose: 10 μg/animal; Route: SC.
Test formulation II: MIRA 4 (Table 15D) plus PA1 (Table 16D) was dosed into distal small intestine (ileum) at a dose of 240 μg/animal to anesthetized rats; Dose: 240 μg/animal; Route: distal small intestine (ileum).
Test formulation III: MIRA 1 (Table 15A) plus PA3 (Table 16E) was dosed into distal small intestine (ileum) at a dose of 240 μg/animal to anesthetized S.D. rats; Dose: 240 μg/animal; Route: distal small intestine (ileum).
During the experiment, the animals were non-fasted. […] The clinical signs observed are normal. […]
Kit Protocol: Used manufacturer recommended protocol (Cat.No. 60-3900)—Place a sufficient number of Streptavidin Coated Strips in a holder to run PTH standards, controls and unknown samples; Pipet 150 μL of standard, control, or sample into the designated or mapped well. […] Read the absorbance at 620 nm (see Note) within 5 minutes in a microtiter plate reader against the 0 μg/mL Standard wells as a blank; Immediately pipet 50 μL of ELISA Stop Solution into each of the wells. […]

Each structure is given as a SMILES string.

Take `CCCCCCCCCCCCCCCC(=O)N[C@@H](CCC(=O)NCCCC[C@H](NC(=O)[C@H](C)NC(=O)[C@H](C)NC(=O)[C@H](CCC(N)=O)NC(=O)CNC(=O)[C@H](CCC(=O)O)NC(=O)[C@H](CC(C)C)NC(=O)[C@H](Cc1ccc(O)cc1)NC(=O)[C@H](CO)NC(=O)[C@H](CO)NC(=O)[C@@H](NC(=O)[C@H](CC(=O)O)NC(=O)[C@H](CO)NC(=O)[C@@H](NC(=O)[C@H](Cc1ccccc1)NC(=O)[C@@H](NC(=O)CNC(=O)[C@H](CCC(=O)O)NC(=O)[C@H](C)NC(=O)[C@@H](N)Cc1cnc[nH]1)[C@@H](C)O)[C@@H](C)O)C(C)C)C(=O)N[C@@H](CCC(=O)O)C(=O)N[C@@H](Cc1ccccc1)C(=O)N[C@H](C(=O)N[C@@H](C)C(=O)N[C@@H](Cc1c[nH]c2ccccc12)C(=O)N[C@@H](CC(C)C)C(=O)N[C@H](C(=O)N[C@@H](CCCNC(=N)N)C(=O)NCC(=O)N[C@@H](CCCNC(=N)N)C(=O)NCC(=O)O)C(C)C)[C@@H](C)CC)C(=O)O` [Liraglutide]: in data set [1], the clinical signs result is on record as “normal” and the mortality entry is “no mortality observed”.
For `C[C@@H](O)[C@@H]1NC(=O)[C@H](CCCCN)NC(=O)[C@@H](Cc2c[nH]c3ccccc23)NC(=O)[C@H](Cc2ccccc2)NC(=O)[C@@H](NC(=O)[C@H](N)Cc2ccccc2)CSSC[C@@H](C(=O)N[C@H](CO)[C@@H](C)O)NC1=O` [octreotide], in data set [2], the clinical signs entry is given as “normal” and the mortality result is on record as “no mortality observed”.
For the compound `CC[C@H](C)[C@H](NC(=O)[C@H](CCC(=O)O)NC(=O)[C@H](CO)NC(=O)[C@@H](NC(=O)[C@@H](N)CO)C(C)C)C(=O)N[C@@H](CCC(N)=O)C(=O)N[C@@H](CC(C)C)C(=O)N[C@@H](CCSC)C(=O)N[C@@H](Cc1cnc[nH]1)C(=O)N[C@@H](CC(N)=O)C(=O)N[C@@H](CC(C)C)C(=O)NCC(=O)N[C@@H](CCCCN)C(=O)N[C@@H](Cc1cnc[nH]1)C(=O)N[C@@H](CC(C)C)C(=O)N[C@@H](CC(N)=O)C(=O)N[C@@H](CO)C(=O)N[C@@H](CCSC)C(=O)N[C@@H](CCC(=O)O)C(=O)N[C@@H](CCCN=C(N)N)C(=O)N[C@H](C(=O)N[C@@H](CCC(=O)O)C(=O)N[C@@H](Cc1c[nH]c2ccccc12)C(=O)N[C@@H](CC(C)C)C(=O)N[C@@H](CCCN=C(N)N)C(=O)N[C@@H](CCCCN)C(=O)N[C@@H](CCCCN)C(=O)N[C@@H](CC(C)C)C(=O)N[C@@H](CCC(N)=O)C(=O)N[C@@H](CC(=O)O)C(=O)N[C@H](C(=O)N[C@@H](Cc1cnc[nH]1)C(=O)N[C@@H](CC(N)=O)C(=O)N[C@@H](Cc1ccccc1)C(=O)O)C(C)C)C(C)C` [teriparatide], in data set [3], the clinical signs result was “normal” and the mortality entry is “no mortality observed”.
